Assays:
Assay type in all cases: biochemical
[1] = target: JNK3 (Homo sapiens, UniProt P53779); experiment: In vitro JNK3 inhibition (Table 1)
Method: (§1) In vitro assays for the determination of JNK activities are known in the art and exemplary assay formats are described herein.
(§2) IC50 values in Table 1 were determined using the procedures as described in U.S. Pat. No. 8,450,353.

[2] = target: JNK1 (Homo sapiens, UniProt P45983); experiment: In vitro JNK1 inhibition (Table 1)
Method: as §1, §2

[3] = target: JNK2 (Homo sapiens, UniProt P45984); experiment: In vitro JNK2 inhibition (Table 1)
Sequence of JNK2 (P45984 whole entry, species assumed): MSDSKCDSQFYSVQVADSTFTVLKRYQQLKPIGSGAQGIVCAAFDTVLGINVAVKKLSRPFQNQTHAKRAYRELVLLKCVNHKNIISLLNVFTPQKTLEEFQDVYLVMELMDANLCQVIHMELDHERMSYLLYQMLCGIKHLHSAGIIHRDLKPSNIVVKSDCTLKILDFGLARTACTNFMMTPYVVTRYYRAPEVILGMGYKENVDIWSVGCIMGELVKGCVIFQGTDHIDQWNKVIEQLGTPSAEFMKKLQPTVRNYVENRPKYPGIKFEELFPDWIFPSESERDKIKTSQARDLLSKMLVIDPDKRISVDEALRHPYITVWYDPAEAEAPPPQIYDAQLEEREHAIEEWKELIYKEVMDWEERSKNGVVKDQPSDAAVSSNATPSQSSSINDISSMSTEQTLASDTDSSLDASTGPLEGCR
Method: as §1, §2

Measured: IC50

Sequence of JNK3 (P53779 whole entry, species assumed): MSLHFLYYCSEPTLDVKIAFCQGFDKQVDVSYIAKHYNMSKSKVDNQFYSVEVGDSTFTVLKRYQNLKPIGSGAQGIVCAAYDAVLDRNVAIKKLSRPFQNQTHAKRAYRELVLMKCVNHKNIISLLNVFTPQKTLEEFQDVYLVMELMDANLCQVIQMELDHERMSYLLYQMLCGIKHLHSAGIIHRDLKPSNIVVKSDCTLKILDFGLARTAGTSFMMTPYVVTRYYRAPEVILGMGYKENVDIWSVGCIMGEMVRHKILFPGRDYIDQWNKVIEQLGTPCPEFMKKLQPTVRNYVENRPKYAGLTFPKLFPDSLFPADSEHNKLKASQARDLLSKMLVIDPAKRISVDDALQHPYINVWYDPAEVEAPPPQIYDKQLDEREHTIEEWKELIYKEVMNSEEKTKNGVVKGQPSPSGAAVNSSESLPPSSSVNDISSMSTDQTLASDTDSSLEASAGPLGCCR
Sequence of JNK1 (P45983 whole entry, species assumed): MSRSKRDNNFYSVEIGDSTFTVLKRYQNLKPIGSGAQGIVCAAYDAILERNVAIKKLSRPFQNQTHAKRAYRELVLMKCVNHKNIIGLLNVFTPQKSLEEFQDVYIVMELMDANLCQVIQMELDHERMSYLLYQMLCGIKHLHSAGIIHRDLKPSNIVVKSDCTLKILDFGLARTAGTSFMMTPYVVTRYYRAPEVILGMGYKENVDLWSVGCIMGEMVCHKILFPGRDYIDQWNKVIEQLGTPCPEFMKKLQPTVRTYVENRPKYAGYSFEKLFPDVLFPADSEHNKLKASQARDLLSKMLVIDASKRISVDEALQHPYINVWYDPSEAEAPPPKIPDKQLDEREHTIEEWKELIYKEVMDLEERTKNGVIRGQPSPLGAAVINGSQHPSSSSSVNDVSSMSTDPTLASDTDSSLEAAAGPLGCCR

O=C(Cn1c(=O)ccn2nccc12)Nc1scc(Cl)c1-c1ncn[nH]1 [N-(4-chloro-3-(1H-1,2,4-triazol-5-yl)thiophen-2-yl)-2-(5-oxopyrazolo[1,5-a]pyrimidin-4(5H)-yl)acetamide]
< 100 nM: [1] | [2] | [3]

O=C(Cn1c(=O)ccn2nc(C(F)(F)F)cc12)Nc1scc(Cl)c1-c1ncn[nH]1 [N-(4-chloro-3-(1H-1,2,4-triazol-5-yl)thiophen-2-yl)-2-(5-oxo-2-(trifluoromethyl)pyrazolo[1,5-a]pyrimidin-4(5H)-yl)acetamide]
< 100 nM: [1] | [2] | [3]

Cn1cnc(-c2c(Cl)csc2NC(=O)Cn2c(=O)ccc3nc(C(F)(F)F)ccc32)n1 [N-(4-chloro-3-(1-methyl-1H-1,2,4-triazol-3-yl)thiophen-2-yl)-2-(2-oxo-6-(trifluoromethyl)-1,5-naphthyridin-1(2H)-yl)acetamide]
< 100 nM: [1] | [2] | [3]

O=C(Cn1c(=O)ccn2nc(C(F)(F)F)cc12)Nc1scc(Br)c1-c1ncn[nH]1 [N-(4-bromo-3-(1H-1,2,4-triazol-5-yl)thiophen-2-yl)-2-(5-oxo-2-(trifluoromethyl)pyrazolo[1,5-a]pyrimidin-4(5H)-yl)acetamide]
< 100 nM: [1] | [2] | [3]

N#Cc1csc(NC(=O)CN2C(=O)CCc3ccccc32)c1-c1ncn[nH]1 [N-(4-cyano-3-(1H-1,2,4-triazol-5-yl)thiophen-2-yl)-2-(2-oxo-3,4-dihydroquinolin-1(2H)-yl)acetamide]
< 100 nM: [1] | [2] | [3]

From patent US20190231751A1, “TREATMENT OF FIBROTIC DISORDERS WITH JUN N-TERMINAL KINASE INHIBITORS” (Imago Pharmaceuticals, Inc., priority 2016, published 2019)
